The results in this text go back to US12404244B2, “Pan-KIT kinase inhibitor having quinoline structure and application thereof” (Tarapeutics Science Inc., priority 2018, dated 2025).

Each structure is given as a SMILES string. Read-outs that look alike come from different tables or passages of the source.

Holding throughout (assay type): cell-based, mouse
Test [1] deals with TEL-KIT-BaF3 (stably expressing KIT wild-type kinase). Put plainly: Proliferation of TEL-KIT-BaF3 cells (CCK-8). Conditions: for GI50: Mus musculus, read-out: GI50 TEL-KIT-BaF3. The text has this: (§1) Compounds as provided herein were further evaluated for their inhibitory effects on proliferation of cancer cells by testing their effects on growth of cancer cells. In this example the following cells were used: primary mouse B cells BaF3 (purchased from ATCC), GIST-T1 cells of the human gastrointestinal stromal tumor cell line (expressing wild-type KIT gene) (purchased from Cosmo Bio Co., Ltd. (Japan)). The present lab further constructed and used the following: mouse Tel-Kit-BaF3 (stably expressing KIT wild-type kinase), mouse Tel-Kit/T670I-BaF3 (stably expressing KIT T670I mutant kinase), mouse Tel-Kit/V559A-BaF3 (stably expressing KIT V559A mutant kinase), mouse Tel-Kit/V559D-BaF3 (stably expressing KIT V559D mutant kinase), mouse Tel-Kit/V559G-BaF3 (stably expressing KIT V559G mutant kinase), mouse Tel-Kit/V560D-BaF3 (stably expressing KIT V560D mutant kinase), mouse Tel-Kit/L576P-BaF3 (stably expressing KIT L576P mutant kinase), mouse Tel-Kit/V654A-BaF3 (stably expressing KIT V654A mutant kinase), mouse Tel-Kit/V654A/V559D-BaF3 (stably expressing KIT V654A V559D mutant kinase), mouse Tel-Kit/T670E-BaF3 (stably expressing KIT T670E mutant kinase), mouse Tel-Kit/T670I/V559D-BaF3 (stably expressing KIT T670I V559D mutant kinase), mouse Tel-Kit/S709F-BaF3 (stably expressing KIT S709F mutant kinase), mouse Tel-Kit/D816E-BaF3 (stably expressing KIT D816E mutant kinase), mouse Tel-Kit/D816H-BaF3 (stably expressing KIT D816H mutant kinase), mouse Tel-Kit/D820E-BaF3 (stably expressing KIT D820E mutant kinase), mouse Tel-Kit/D820G-BaF3 (stably expressing KIT D820G mutant kinase), mouse Tel-Kit/D820Y-BaF3 (stably expressing KIT D820Y mutant kinase), mouse Tel-Kit/N822K-BaF3 (stably expressing KIT N822K mutant kinase), mouse Tel-Kit/Y823D-BaF3 (stably expressing KIT Y823D mutant kinase), mouse Tel-Kit/A829P-BaF3 (stably expressing KIT A829P mutant kinase), GIST-T1-T670I cells of the human gastrointestinal stromal tumor cell line (expressing KIT-T670I mutant gene). The above cell lines were constructed by: amplifying respectively the sequences of human KIT and various mutant kinase regions of KIT via PCR, inserting the fragments respectively into MSCV-Puro vectors having a N-terminal TEL fragment and/or a NPM fragment and/or a TPR fragment (purchased from Clontech), transfecting mouse BaF3 cells with the vectors by means of retrovirus to obtain stably transfected cells, removing the growth factor IL-3, and thereby eventually obtaining cell lines that depend on the transferred protein KIT or various mutants of KIT. The GIST-T1-T670I (expressing C-KIT-T670I mutant gene) cell line was constructed by our laboratory as follows: designing sgRNA that targeted a region around T670 of the KIT gene with CRISPR Design Tool (website: crispr.mit.edu, Zhang Feng Lab), cloning it into pSpCas9(BB)-2A-Puro vector; co-transfecting cells with the resultant vector and a single-stranded oligonucleotide having T670I site mutation that is near to T670, subjecting the resultant to antibiotics screening, followed by dilution, and monocellular culture in a 96-well plate; validating the site T670 of the cells by sequence detection via Sanger sequencing.
(§2) The cells after incubation were detected using CCK-8 (purchased from MedChem Express, Shanghai, China) cell viability assay kit (CCK-8 may be reduced by dehydrogenase in living cells to a highly water-soluble yellow formazan product, and the amount of the resultant formazan is proportional to the number of living cells), the number of living cells were quantified with a microplate reader, and GI50 of the compounds and the control compounds were calculated (the results shown in Table 2 and Table 3).

A further test relates to TEL-KIT/T670I-BaF3. Put plainly: Proliferation of TEL-KIT/T670I-BaF3 cells (CCK-8). Conditions: for GI50: Mus musculus, read-out: GI50 TEL-KIT/T670I-BaF3.
Excerpt: as §1

The next test has as its system BaF3. The test is described as follows: Proliferation of parental BaF3 cells (CCK-8). Conditions: for GI50: Mus musculus, read-out: GI50 BaF3.
Excerpt: as §1, §2

Setting [2] is: BaF3 parent cells, 72 hours, CCK-8.

For `COc1cc2nccc(Oc3ccc(NC(=O)Cc4ccccc4)cn3)c2cc1OC` [Comparative Example 1, N-(6-((6,7-dimethoxyquinolin-4-yl)oxy)pyridin-3-yl)-2-phenylacetamide, reference compound], the “inhibitory effect against wild-type KIT” value in test [1] is “no significant inhibitory effects”. Further, the GI50 in test [1] (72 h) was over 10 µM; with TEL-KIT/T670I-BaF3 (72 h), over 10 µM; in the test with BaF3 (BaF3, 72 h), over 10 µM. Besides, the “inhibitory effect against mutant KIT-T670I” value in the test on TEL-KIT/T670I-BaF3 is given as “no significant inhibitory effects”.

As to `COc1cc2nccc(Oc3ccc(C(=O)NCc4cccc(C(F)(F)F)c4)cc3)c2cc1OC` [Comparative Example 3, N-(3-(trifluoromethyl)benzyl)-4-((6,7-dimethoxyquinolin-4-yl)oxy)benzamide, reference compound], the “inhibitory effect against wild-type KIT” value in test [1] is “substantially vanished”. The GI50 was 2.35 µM in test [1] (KIT wild-type, 72 hours, CCK-8); 4.61 µM in the test on TEL-KIT/T670I-BaF3 (72 hours, CCK-8); at least 10 µM with BaF3 (setting [2]). For the same molecule, the “inhibitory effect against mutant KIT-T670I” value with TEL-KIT/T670I-BaF3 is reported as “substantially vanished”.

For the molecule `COc1cccc(CC(=O)Nc2ccc(Oc3ncnc4cc(OC)c(OC)cc34)cc2)c1` [Comparative Example 4, N-(4-((6,7-dimethoxyquinazolin-4-yl)oxy)phenyl)-2-(3-methoxyphenyl)acetamide, reference compound], in test [1], the “inhibitory effect against wild-type KIT” value is given as “certain inhibitory activity but lower than that of the present invention compounds”. The GI50 in test [1] (KIT wild-type, 72 hours, CCK-8) is 0.183 µM; in the test with TEL-KIT/T670I-BaF3 (72 hours, CCK-8) it was 0.844 µM; in the test with BaF3 (setting [2]), 3.12 µM. In addition, the “inhibitory effect against mutant KIT-T670I” value with TEL-KIT/T670I-BaF3 is “certain inhibitory activity but lower than that of the present invention compounds”. In the test on BaF3 (KIT and KIT-T670I relative to parent BaF3 cells), the “selectivity against BaF3” value is “weaker selectivity against BaF3”.

Turning to `COc1cc2nccc(Oc3ccc(NC(=O)Cc4cccc(C(F)(F)F)c4)cc3)c2cc1OC` [Example 8, N-(4-((6,7-dimethoxyquinolin-4-yl)oxy)phenyl)-2-(3-(trifluoromethyl)phenyl)acetamide], the GI50 in test [1] (72 h) is 0.02 µM; in the test with TEL-KIT/T670I-BaF3 (72 h), 0.001 µM; with BaF3 (BaF3, 72 h), 1.89 µM.

Consider `COc1cc2nccc(Oc3ccc(NC(=O)Cc4ccc(C(F)(F)F)cc4)cc3)c2cc1OC` [Example 9, N-(4-((6,7-dimethoxyquinolin-4-yl)oxy)phenyl)-2-(4-(trifluoromethyl)phenyl)acetamide], for which the GI50 in test [1] (72 h) is 0.022 µM; with TEL-KIT/T670I-BaF3 (72 h), 0.011 µM; in the test with BaF3 (BaF3, 72 h), 2.16 µM.

For `COc1cc2nccc(Oc3ccc(NC(=O)Cc4ccc(C)c(C)c4)cc3)c2cc1OC` [Example 11, N-(4-((6,7-dimethoxyquinolin-4-yl)oxy)phenyl)-2-(3,4-dimethylphenyl)acetamide], the GI50 in test [1] (72 h) came to 0.027 µM; in the test with TEL-KIT/T670I-BaF3 (72 h), 0.015 µM; in the test on BaF3 (BaF3, 72 h) it was 6.42 µM.

With `COc1cc2nccc(Oc3ccc(NC(=O)Cc4ccc(F)c(C(F)(F)F)c4)cc3)c2cc1OC` [Example 13, N-(4-((6,7-dimethoxyquinolin-4-yl)oxy)phenyl)-2-(4-fluoro-3-(trifluoromethyl)phenyl)acetamide], the GI50 was 0.024 µM in test [1] (72 h); 0.013 µM with TEL-KIT/T670I-BaF3 (72 h); 1.03 µM in the test on BaF3 (BaF3, 72 h).

With `COc1cc2nccc(Oc3ccc(NC(=O)Cc4ccc(Cl)c(C(F)(F)F)c4)c(F)c3)c2cc1OC` [Example 24, N-(2-fluoro-4-((6,7-dimethoxyquinolin-4-yl)oxy)phenyl)-2-(4-chloro-3-(trifluoromethyl)phenyl)acetamide], the GI50 in test [1] (72 h) turned out to be 0.049 µM; with TEL-KIT/T670I-BaF3 (72 h) it was 0.018 µM; in the test with BaF3 (BaF3, 72 h) it was 3.21 µM.

For `COc1cc2nccc(Oc3ccc(NC(=O)NCCCc4ccccc4)cc3)c2cc1OC` [Example 30, 1-(4-((6,7-dimethoxyquinolin-4-yl)oxy)phenyl)-3-(3-phenylpropyl)urea], the GI50 came out at 0.11 µM in test [1] (KIT wild-type, 72 hours, CCK-8); 0.01 µM in the test on TEL-KIT/T670I-BaF3 (72 hours, CCK-8); 2.91 µM with BaF3 (setting [2]).

For `COc1cc2nccc(Oc3ccc(NC(=O)NCCCc4cccc(F)c4)cc3)c2cc1OC` [Example 31, 1-(4-((6,7-dimethoxyquinolin-4-yl)oxy)phenyl)-3-(3-(3-fluorophenyl)propyl)urea], the GI50 in test [1] (KIT wild-type, 72 hours, CCK-8) was 0.097 µM; in the test on TEL-KIT/T670I-BaF3 (72 hours, CCK-8), 0.016 µM; in the test with BaF3 (setting [2]), 2.48 µM.

`COc1cc2nccc(Oc3ccc(NC(=O)NCCCc4ccc(F)cc4)cc3)c2cc1OC` [Example 32, 1-(4-((6,7-dimethoxyquinolin-4-yl)oxy)phenyl)-3-(3-(4-fluorophenyl)propyl)urea]: the GI50 in test [1] (KIT wild-type, 72 hours, CCK-8) was 0.068 µM; in the test with TEL-KIT/T670I-BaF3 (72 hours, CCK-8), 0.015 µM; with BaF3 (setting [2]), 3.85 µM.

As to `COc1cc2nccc(Oc3ccc(NC(=O)Cc4ccc(Cl)c(C(F)(F)F)c4)cc3Cl)c2cc1OC` [Example 38, N-(3-chloro-4-((6,7-dimethoxyquinolin-4-yl)oxy)phenyl)-2-(4-chloro-3-(trifluoromethyl)phenyl)acetamide], the GI50 came to 0.078 µM in test [1] (72 h); 0.056 µM with TEL-KIT/T670I-BaF3 (72 h); 9.45 µM in the test on BaF3 (BaF3, 72 h).
